One assay has as its system GABA-A receptor. The experiment in a line: Cortical tissue homogenate study: radioactive chloride uptake into vesicles through the GABA-A receptor. It is filed as biochemical, rat. To be noted: for Mean % (SEM) chloride uptake relative to only 10 uM GABA: 10 μM GABA alone = 100%, 3alpha-hydroxy-5alpha-pregnan-20-one 0-3000 nM + 10 μM GABA + 30 μM interacting steroid, reference steroid tested without blocker; for Within group change from 0 nM 3alpha-hydroxy-5alpha-pregnan-20-one: doses of 3alpha-hydroxy-5alpha-pregnan-20-one: 1=0, 2=50, 3=100, 4=150, 5=200, 6=1000, 7=3000 nM, + 10 μM GABA + 30 μM steroid. Here is the method: In these studies cortical tissue from mature male rats was homogenized in buffer. As a result of this procedure a suspension of small vesicles was formed, said vesicles having GABA-A receptors on their surface. When radioactive chloride is added to this suspension, a certain amount will enter the vesicles. This amount is related to how much open the GABA-A receptor is. Drugs that open the receptor will increase the amount of chloride in the vesicles in relation to the dosage of the drug. Similarly, drugs that close the GABA-A receptor will decrease the amount of chloride moving into the vesicles. The labeled chloride outside of the vesicles was washed away and separated from the chloride inside. The amount of radioactively labeled chloride inside the vesicles was thereafter measured in a fluid scintillator and a curve drawn.
At each experiment, a control of increasing dosages of GABA was used to ensure that the tissue sample is working properly. A second control was used to enhance the effect of 10 μM of GABA by adding increasing dosages 3alpha-hydroxy-5alpha-pregnan-20-one.
The effect is shown as a percentage change from the uptake with only 10 μM GABA and no 3 alpha-hydroxy-5alpha-pregnan-20-one in this case given the measure 100%.
In all cases 3alpha-hydroxy-5alpha-pregnan-20-one is given in increasing dosages 1=0, 2=50, 3=100, 4=150, 5=200, 6=1000, 7=3000 nM+10 μM GABA+30 μM of interacting Steroid. H=high, S=significant, NS=non significant. Statistical testing made with repeated measures ANOVA followed post hoc with lest significant difference test.

The test system of the next assay is rats. The experiment in a line: Morris water maze learning model. The format is in vivo, rat. To be noted: for Learning to find the hidden platform (latency), substance given alone: i.v. daily for 6 days, four trials per day, UC1011 20 mg/kg or 3alpha-hydroxy-5alpha-pregnan-20-one 2 mg/kg, UC1011 vs 3alpha group p<0.05 day 3-6. From the text:
Animal studies using the Morris water-maze model have been performed. In the Morris water-maze model, the learning capacity of the test animals can be observed. The test animal, usually a rat, is placed in a container with water, having a platform at one location. This platform is slightly under the surface of the water, and the rat must swim until it finds the platform. In following test sessions the rat will learn were the platform is by looking at markings on the wall of the room. It is known, that the learning process is negatively influenced by the administration of CNS depressing 3alpha-hydroxy-pregnan-steroids. (Johansson L M, Birzniece V, Lindblad C., Olsson T. and Bäckström T (2002) Allopregnanolone inhibits learning in the Morris water maze. Brain Res 934, 125-131).
The results (FIG. 3) indicate, that this negative effect is removed or alleviated through the administration of a compound according to the present invention. The experiments were conducted using 3alpha-hydroxy-pregnan-20-one as learning disturbing substance (CAS no. 516-54-1, Table 1) and 3beta,20beta-dihydroxy-5alpha-pregnane, UC1011, (CAS 516-53-9, Table 2 and 3) as blocking substance. Rats (n=46) where injected (i.v) daily with 3beta,20beta-dihydroxy-5alpha-pregnane, UC1011 20 mg/kg (n=14), 3alpha-hydroxy-5alpha-pregnan-20-one 2 mg/kg (n=14), 3alpha-hydroxy-5alpha-pregnan-20-one+3beta,20beta-dihydroxy-5alpha-pregnane, UC1011 2:20 mg/kg (n=14), or vehicle (n=4) Animals were given four swim trials daily with maximal swimming time 120 second for each trial. The rats started to swim 8 minute after the 3alpha-hydroxy-5alpha-pregnan-20-one injection for 6 days. The performance of rats was monitored with a video camera and data was analyzed with analysis of variance (ANOVA) followed by post hoc test.

Consider 9 compounds from patent US8119619B2, “Pregnane steroids and their use in the treatment of CNS disorders” (Umecrine AB, priority 2001, dated 2012).

“And” between values parts separate entries of the source, which are not always exact repeats. Identical values can stand only once. “Also recorded” adds a separate entry of the source.

In the case of `C[C@H](O)[C@H]1CC[C@H]2[C@@H]3CC[C@@H]4C[C@@H](O)CC[C@]4(C)[C@H]3CC[C@]12C` [UC1013, 3beta,20alpha-dihydroxy-5beta-pregnane], in the assay with GABA-A receptor, the “Mean % (SEM) chloride uptake relative to only 10 uM GABA” value is 84.2(22) % and the “Within group change from 0 nM 3alpha-hydroxy-5alpha-pregnan-20-one” value (“Within group change” below) is on record as “All dosages = NS”.

With `CC(O)C1CCC2C3CCC4CC(O)CCC4(C)C3CCC12C` (stereo not drawn) [UC1011, 3beta,20beta-dihydroxy-5alpha-pregnane], the “Learning to find the hidden platform (latency), blocker given with 3alpha-hydroxy-5alpha-pregnan-20-one” value in the assay with rats (3alpha-hydroxy-5alpha-pregnan-20-one + UC1011 2:20 mg/kg i.v. daily for 6 days, compared with the 3alpha-hydroxy-5alpha-pregnan-20-one group, p<0.05 day 4-6, 20 mg/kg) is on record as “lower latency time; also recorded: start to learn significantly on the 4th day of training”. Besides, the “Learning to find the hidden platform (latency), substance given alone” value with rats was “learned to find the platform as quickly as the control group; also recorded: learn to find the platform on the tired day of training”. In the assay with GABA-A receptor, the “Mean % (SEM) chloride uptake relative to only 10 uM GABA” value was 81.9(19) % and the “Within group change” value was “All dosages = NS”. Further, the “Effect on the increase in chloride uptake induced by 3alpha-hydroxy-5alpha-pregnan-20-one (FIG. 2)” value in the assay on GABA-A receptor (30 μM blocker, 10 μM GABA, increasing 3alpha-hydroxy-5alpha-pregnan-20-one) is listed as “blocked”.

Regarding `C[C@]12CC[C@H](O)C[C@H]1CC[C@@H]1[C@@H]2CC[C@]2(C)[C@@H](C(=O)CO)CC[C@@H]12` [UC1015, 3beta,21-dihydroxy-5beta-pregnan-20-one], in the assay on GABA-A receptor, the “Mean % (SEM) chloride uptake relative to only 10 uM GABA” value is recorded as 102.7(22) % and the “Within group change” value was “All dosages = NS”.

Take `CC(=O)[C@H]1CC[C@H]2[C@@H]3CC[C@H]4C[C@@H](O)CC[C@]4(C)[C@H]3C(=O)C[C@]12C` [UC1017, 3beta hydroxy-5alpha-pregnan-11,20-dione]: the “Within group change” value in the assay on GABA-A receptor is on record as “All dosages = NS”.

As for “3beta-hydroxy-5alpha-pregnan-20-one-sulfate, sodium salt [UC1016]”, in the assay on GABA-A receptor, the “Mean % (SEM) chloride uptake relative to only 10 uM GABA” value is 109.8(19) % and the “Within group change” value is “All dosages = NS”.

As for `CC(=O)[C@H]1CC[C@H]2[C@@H]3CC[C@@H]4C[C@@H](O)CC[C@]4(C)[C@H]3CC[C@]12C` [UC1014, 3beta-hydroxy-5beta-pregnan 20-one], in the assay on GABA-A receptor, the “Mean % (SEM) chloride uptake relative to only 10 uM GABA” value is listed as 92.9(22) % and the “Within group change” value is recorded as “All dosages NS”.

Regarding `CC(=O)[C@H]1CC[C@H]2[C@@H]3CC[C@H]4C[C@H](O)CC[C@]4(C)[C@H]3CC[C@]12C` [3alpha-hydroxy-5alpha-pregnan-20-one, reference compound], in the assay on rats (2 mg/kg i.v. daily, after 6 days with practice, max swimming time 120 second), the “Latency to find the platform” value is “above 80 seconds”. For the same compound, the “Learning to find the hidden platform (latency), substance given alone” value in the assay on rats is “inhibits spatial learning”; in the assay on rats (listed as 3alpha-hydroxy-5alpha-preganane-20-one) it was “do not learn significantly within six days”. For the same compound, in the assay with GABA-A receptor, the “Mean % (SEM) chloride uptake relative to only 10 uM GABA” value was 167.7% and 167.7(13) %. Moreover, in the assay on GABA-A receptor, the “Within group change” value is “Dose 3, 5, 6, 7 = S”.

In the case of `CC(=O)[C@H]1CC[C@H]2[C@@H]3CC[C@H]4C[C@@H](O)CC[C@]4(C)[C@H]3CC[C@]12C` [UC1010, 3beta-hydroxy-5alpha-pregnan-20-one], in the assay with GABA-A receptor, the “Mean % (SEM) chloride uptake relative to only 10 uM GABA” value is reported as 104.4(13) % and the “Within group change” value is given as “Dos 7 = S H; also recorded: The rest = NS”.

`CC(=O)[C@H]1CC[C@H]2[C@@H]3CC=C4C[C@@H](OS(=O)(=O)[O-])CC[C@]4(C)[C@H]3CC[C@]12C.[Na+]` [UC1018, 3beta-hydroxy-delta5-pregnen-20-one-sulfate, sodium salt]: in the assay on GABA-A receptor, the “Mean % (SEM) chloride uptake relative to only 10 uM GABA” value is on record as 64.7(23) % and the “Within group change” value is given as “All dosages = NS”.
